According to patent US9359371B2, “Bicyclic substituted pyrimidine compounds” (Xuanzhu Pharma Co., Ltd., priority 2012, dated 2016):
Where two headings read alike, the source gives them in different places.

Tests used:
PDE-5A enzyme = PDE-5A enzyme (Homo sapiens (Human), UniProt O76074); test: Caliper Mobility-Shift PDE-5A Assay; assay type: biochemical; details: Table 1; Avanafil value is the control
Description: Experiment 1: Measurement of Enzymatic Activity In Vitro
PDE-5A enzyme: humanized PDE-5 enzyme, SignalChem, Cat#93-31G-20.
Method: enzyme assay, Caliper Mobility-Shift PDE-5A Assay:
The test compound was accurately weighed, dissolved in DMSO, mixed thoroughly and formulated into 10 mM.
(§1) The maximum final concentration of the compound was 10 μM. The plate was incubated at 30° C. for 1 h, and 20 μL of 70 μM EDTA was then added to stop the reaction. 26 μL of solution of each well was transferred to a 384-well plate. The conversion was read on a EZ reader II. The inhibition rate was calculated by the formula below, and used to calculate IC50 by Prism 5.0 Inhibition rate=[Conversion (ZPE)−Conversion (sample)]×100/[Conversion (ZPE)−Conversion (HPE)]
Note: HPE: control without enzyme; ZPE: control without a test compound

[1] = target: PDE-5 enzyme (human blood platelets) (Homo sapiens (Human), UniProt O76074); test: PDE-5 enzyme assay, [3H]cGMP; assay type: biochemical
bovine retinal PDE-6 [2] = target: bovine retinal PDE-6 (Bos taurus (Bovine), UniProt P11541+P23439); test: PDE-6 enzyme assay, [3H]cGMP; assay type: biochemical
Description: (§2) Experiment 3: Measurement of Enzyme Activity on PDE-6 Enzyme In Vitro
(§3) Source of enzyme: PDE-6, bovine retinal PDE-6
(§4) Method: The test compound or solvent was incubated at 25° C. for 15 min with enzyme solution (0.2 μg/mL) in Tris-HCl buffer of pH 7.5. 100 μM cGMP and 0.03 μM [^3H] cGMP were then added to activate the reaction. The mixture was incubated for 20 min. The reaction was stopped at 100° C. By addition of snake venom nucleotidase, the product [^3H] GMP was converted into [^3H] Guanosine, which was separated with AG1-X2 resin. The amount of [^3H] Guanosine was measured.

bovine retinal PDE-6 [3] = test: PDE-6 enzyme assay, [3H]cGMP; assay type: biochemical; details: for Selectivity (PDE-6/PDE-5): IC50 for PDE-6/IC50 for PDE-5; for selectivity on PDE-5 enzyme versus PDE-6 (in words): selectivity >70 called high
Description: as §2, §3, §4

PDE-11 = PDE-11 (Homo sapiens (Human), UniProt Q9HCR9); test: Caliper Mobility-Shift PDE-11 Assay; assay type: biochemical; details: Table 4; maximum final concentration 10 μM
Description: Experiment 4: Measurement of Pharmacological Activity on PDE-11 Enzyme In Vitro
Method: enzyme assay, Caliper Mobility-Shift PDE-11 Assay
The test compound was accurately weighed, dissolved in DMSO, mixed thoroughly and formulated into 10 mM. The above stock solution was diluted to a concentration of 0.5 mM with DMSO, and then was gradiently diluted by a dilution factor of 3.162, resulting in 11 concentrations in total.
as §1, with “To a 96-well plate, 20 μL of 10 μM FL-cGMP as the substrate was added; then 1 μL solution of the compound in DMSO or DMSO solution without compound was added; and then 29 μL of 0.28 ng/μL PDE-11 enzyme buffer (100 mM Hepes pH 7.5, 5 mM MgCl2, 0.002% Brij-35) was added. The maximum” for “The maximum”, “II. The Inhibition rate was” for “II. The inhibition rate was”
Note: HPE: control without enzyme; ZPE: control without compound

[4] = Pharmacokinetics (PK) in SD rats; assay type: in vivo; details: rat; for AUC(0-inf) / half-life / Cmax / Tmax / bioavailability: SD, plasma; for bioavailability: read-out: F % (absolute bioavailability)
Description: Experiment 9: Assay of Pharmacokinetics (PK) of the Compounds of the Present Invention in SD Rats
Compound 1-54 of the present invention were prepared by the methods described in Example 1 to Example 54 of the present invention.
The control drug Avanafil, of which the structure was stated above, was purchased commercially.
Collection of the rat's blood: The animal was fixed. The tail was warmed with a water bath 10 min before the collection time. About 200 μL of whole blood was collected from the tail vein. The collected blood was collected into anticoagulant tubes containing heparin sodium. The blood samples were centrifuged at 4° C. by 8000 rpm for 6 min to give the plasma samples, which should be prepared within 30 min after the collection of blood. The plasma samples were stored in a freezer of −80° C. until test.
The result output by Analyst 1.5.1 of AB Company was used as the concentration of the tested sample (plasma sample). The mean value, standard deviation, variable coefficient and the like were calculated by Microsoft Excel (except for the result directly output by Analyst 1.5.1). Parameters of PK were calculated by Pharsight Phoenix 6.2 software. Formula for calculating oral bioavailability: F %=AUCinf−po*Doseiv/AUCinf−iv*Dosepo.

hERG channel = hERG channel (Homo sapiens (Human), UniProt Q12809); test: hERG potassium channel whole-cell patch clamp on CHO-K1 cell line
From the text: Experiment 8: Detection of Inhibitory Effect of the Compounds of the Present Invention on hERG Potassium Channel by the Patch Clamp Method
Rapidly activated human delayed rectifying outward potassium current (IKr) is mainly mediated by hERG ion channel and is involved in repolarization of human cardiac muscle cell. Clinically, blocking of the current by a drug is the main cause of QT interval prolongation syndrome, acute arrhythmia and even sudden death. The main purpose of the experiment is to test the blocking effect of the compounds of the present invention on hERG channel, and to determine the half maximal inhibitory concentration (IC50) of the compounds.
The experiment mainly included: (1) recording hERG current by patch clamp technique on CHO-K1 cell line which stably expressed hERG channel; (2) calculating the Inhibition rate of each concentration according to hERG tail current; (3) testing each compound at 5 concentrations to calculate IC50; (4) testing 2 cells at each concentration; (5) a positive control.
The structures and synthesis of Compound 88 (WO-88) and Compound 93 (WO-93) as disclosed in WO200119802A were described in Example 55 and Example 56.
Drug for positive control: Amitriptyline hydrochloride (Sigma-Aldrich, an international standard blocker for hERG channel)
Pippette Solution (in mM): KCl 120, KOH 31.25, CaCl2 5.374, MgCl2 1.75, Ethylene glycol-bis(β-aminoethyl ether)-N,N,N′,N′-tetraacetic acid (EGTA) 10, HEPES 10, Na2-ATP 4, adjusted to a pH of 7.2 with 1N potassium hydroxide; adjusted to an osmotic pressure of 280-290 mOsm; preserved at −20° C. after filtration.
Preparation of compounds: Some of the compounds of the present invention and Amitriptyline hydrochloride as the positive control drug were separately dissolved in 100% DMSO (Merck, 61850125001730), then prepared into stock solutions of 30 mM. Before the experiment, the above stock solutions were diluted with DMSO to a concentration of 1000-fold of the experimental concentration. Then the diluted solutions were further diluted with extracellular solution by 1:1000 to the required experimental concentration. The final concentration of DMSO in the extracellular solution was kept as 0.1%.
Stable cell line CHO-hERG was purchased from AVIVA Company. The hERG current on the cell line was recorded. For the purpose of quality control, the smallest seal resistance was no less than 500 MΩ, and the hERG current was no less than 0.4 nA.
The hERG current was recorded by a whole-cell patch clamp technique. Cell suspension was added into a 35-mm culture dish. The culture dish was placed on the objective table of an inverted microscope. Upon cell attachment, perfusion was conducted with the extracellular solution at a flow rate of 1-2 mL/min.
Glass microelectrode with the pipette tip resistance of 2-5 MΩ was controlled by a microelectrode puller via a two-step process. After the whole-cell record was set up, the clamp potential was kept at −80 mV. The cell was depolarized to +60 mV by applying a voltage stimulus, and then repolarized to −50 mV to obtain the hERG tail current. Recordation was conducted after the current was stable. The extracellular perfusion was started from the lowest concentration, with 5-10 min for each concentration until the current was stable, and then conducted with the next concentration.
Stimulus payment and signal collection were performed by A/D-D/A conversion using Digidata 1440 (Molecular Devices) and pCLAMP software (Version 10.2, Molecular Devices). Signal amplification was performed on a patch clamp amplifier (Multiclamp 700B, Molecular Devices), with a filter of 1 KHz. Further data analysis and curve fitting were conducted by Clampfit (version 10.2, Molecular Devices) and Prism. The data were presented as mean value±standard deviation.
In the process of data analysis, the peak value and the baseline of the tail current were corrected when determining the blocking effect on hERG.

[5] = Table 2, human blood platelet enzyme, read-out: IC50 on PDE-5
[6] = Table 4-1, read-out: PDE-5 (IC50 nM)
[7] = Table 3, read-out: IC50 on PDE-6
[8] = Table 4-1, read-out: PDE-6 (IC50 nM)
[9] = po, intragastric administration, 5 mg/kg
[10] = po, intragastric administration, 1 mg/kg

Sequence of hERG channel (Q12809 whole entry): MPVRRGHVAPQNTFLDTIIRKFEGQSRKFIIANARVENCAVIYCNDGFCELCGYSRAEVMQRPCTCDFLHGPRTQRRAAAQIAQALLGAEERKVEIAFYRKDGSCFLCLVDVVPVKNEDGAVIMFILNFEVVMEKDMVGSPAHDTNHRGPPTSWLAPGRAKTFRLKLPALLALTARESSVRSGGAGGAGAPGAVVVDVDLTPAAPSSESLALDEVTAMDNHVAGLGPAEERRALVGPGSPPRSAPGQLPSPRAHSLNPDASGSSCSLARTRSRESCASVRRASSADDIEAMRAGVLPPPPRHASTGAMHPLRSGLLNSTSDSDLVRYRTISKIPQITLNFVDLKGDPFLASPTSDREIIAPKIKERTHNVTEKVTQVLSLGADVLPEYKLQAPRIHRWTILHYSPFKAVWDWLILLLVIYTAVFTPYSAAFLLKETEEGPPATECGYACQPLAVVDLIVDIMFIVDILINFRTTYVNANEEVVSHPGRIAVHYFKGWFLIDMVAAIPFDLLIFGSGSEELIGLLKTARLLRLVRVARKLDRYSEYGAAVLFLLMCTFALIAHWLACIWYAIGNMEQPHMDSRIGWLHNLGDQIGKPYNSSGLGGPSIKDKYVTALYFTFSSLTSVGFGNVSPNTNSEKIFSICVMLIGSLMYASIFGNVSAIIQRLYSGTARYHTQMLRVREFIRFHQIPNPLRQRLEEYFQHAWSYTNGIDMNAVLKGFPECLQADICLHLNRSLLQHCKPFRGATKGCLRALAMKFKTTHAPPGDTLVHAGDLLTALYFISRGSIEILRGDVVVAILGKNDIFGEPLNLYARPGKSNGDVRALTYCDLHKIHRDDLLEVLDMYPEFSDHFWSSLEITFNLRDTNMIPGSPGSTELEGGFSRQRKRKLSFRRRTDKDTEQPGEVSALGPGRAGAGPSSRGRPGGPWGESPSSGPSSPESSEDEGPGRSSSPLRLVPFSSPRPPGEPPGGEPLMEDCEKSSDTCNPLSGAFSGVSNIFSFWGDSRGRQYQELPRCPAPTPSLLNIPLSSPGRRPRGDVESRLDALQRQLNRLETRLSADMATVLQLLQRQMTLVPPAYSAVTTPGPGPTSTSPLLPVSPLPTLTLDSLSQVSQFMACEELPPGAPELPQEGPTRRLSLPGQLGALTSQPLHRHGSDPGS
Sequence of bovine retinal PDE-6 (Bos taurus (Bovine), UniProt P11541+P23439) (P11541 whole entry, looked up): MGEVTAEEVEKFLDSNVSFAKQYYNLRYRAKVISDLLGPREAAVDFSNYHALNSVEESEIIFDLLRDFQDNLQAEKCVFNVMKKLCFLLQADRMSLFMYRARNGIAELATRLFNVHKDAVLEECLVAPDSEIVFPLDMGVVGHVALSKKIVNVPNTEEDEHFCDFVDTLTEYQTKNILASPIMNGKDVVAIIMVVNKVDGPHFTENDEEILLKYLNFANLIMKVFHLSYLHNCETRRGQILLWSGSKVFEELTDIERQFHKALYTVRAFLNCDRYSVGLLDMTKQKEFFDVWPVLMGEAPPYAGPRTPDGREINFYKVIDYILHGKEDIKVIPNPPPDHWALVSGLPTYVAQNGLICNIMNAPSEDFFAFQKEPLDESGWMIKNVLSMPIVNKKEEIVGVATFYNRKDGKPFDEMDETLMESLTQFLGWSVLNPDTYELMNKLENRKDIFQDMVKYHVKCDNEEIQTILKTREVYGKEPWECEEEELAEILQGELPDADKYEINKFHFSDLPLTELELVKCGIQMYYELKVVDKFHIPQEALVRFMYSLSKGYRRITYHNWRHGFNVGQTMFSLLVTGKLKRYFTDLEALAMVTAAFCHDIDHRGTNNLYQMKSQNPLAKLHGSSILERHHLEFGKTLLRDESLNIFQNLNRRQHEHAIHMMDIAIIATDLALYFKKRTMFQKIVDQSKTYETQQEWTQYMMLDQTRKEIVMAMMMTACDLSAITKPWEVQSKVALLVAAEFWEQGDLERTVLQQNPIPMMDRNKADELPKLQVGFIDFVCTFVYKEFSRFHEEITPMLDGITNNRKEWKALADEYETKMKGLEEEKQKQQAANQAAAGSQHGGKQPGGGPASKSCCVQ
Sequence of bovine retinal PDE-6 (Bos taurus (Bovine), UniProt P11541+P23439) (P23439 whole entry, looked up): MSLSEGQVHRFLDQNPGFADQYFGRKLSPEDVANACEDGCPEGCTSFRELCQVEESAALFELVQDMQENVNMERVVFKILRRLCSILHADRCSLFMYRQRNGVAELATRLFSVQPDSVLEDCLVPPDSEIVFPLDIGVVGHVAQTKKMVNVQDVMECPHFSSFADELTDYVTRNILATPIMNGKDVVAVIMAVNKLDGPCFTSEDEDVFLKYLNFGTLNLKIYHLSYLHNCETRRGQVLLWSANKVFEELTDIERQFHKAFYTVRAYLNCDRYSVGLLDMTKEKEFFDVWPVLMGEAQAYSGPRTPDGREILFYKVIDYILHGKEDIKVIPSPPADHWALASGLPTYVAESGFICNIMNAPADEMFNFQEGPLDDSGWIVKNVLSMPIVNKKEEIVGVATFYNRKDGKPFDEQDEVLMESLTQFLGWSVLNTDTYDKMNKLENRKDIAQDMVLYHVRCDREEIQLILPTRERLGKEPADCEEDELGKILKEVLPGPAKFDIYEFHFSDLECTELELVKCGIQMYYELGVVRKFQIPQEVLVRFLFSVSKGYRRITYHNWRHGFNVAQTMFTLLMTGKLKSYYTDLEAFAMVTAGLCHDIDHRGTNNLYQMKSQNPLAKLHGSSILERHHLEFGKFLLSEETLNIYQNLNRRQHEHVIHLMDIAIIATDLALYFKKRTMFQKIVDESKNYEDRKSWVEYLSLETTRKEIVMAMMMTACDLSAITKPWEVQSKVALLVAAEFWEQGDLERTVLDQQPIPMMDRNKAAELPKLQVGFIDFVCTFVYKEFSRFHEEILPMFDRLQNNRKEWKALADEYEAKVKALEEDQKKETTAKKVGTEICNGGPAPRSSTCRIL
Sequence of PDE-11 (Q9HCR9 whole entry): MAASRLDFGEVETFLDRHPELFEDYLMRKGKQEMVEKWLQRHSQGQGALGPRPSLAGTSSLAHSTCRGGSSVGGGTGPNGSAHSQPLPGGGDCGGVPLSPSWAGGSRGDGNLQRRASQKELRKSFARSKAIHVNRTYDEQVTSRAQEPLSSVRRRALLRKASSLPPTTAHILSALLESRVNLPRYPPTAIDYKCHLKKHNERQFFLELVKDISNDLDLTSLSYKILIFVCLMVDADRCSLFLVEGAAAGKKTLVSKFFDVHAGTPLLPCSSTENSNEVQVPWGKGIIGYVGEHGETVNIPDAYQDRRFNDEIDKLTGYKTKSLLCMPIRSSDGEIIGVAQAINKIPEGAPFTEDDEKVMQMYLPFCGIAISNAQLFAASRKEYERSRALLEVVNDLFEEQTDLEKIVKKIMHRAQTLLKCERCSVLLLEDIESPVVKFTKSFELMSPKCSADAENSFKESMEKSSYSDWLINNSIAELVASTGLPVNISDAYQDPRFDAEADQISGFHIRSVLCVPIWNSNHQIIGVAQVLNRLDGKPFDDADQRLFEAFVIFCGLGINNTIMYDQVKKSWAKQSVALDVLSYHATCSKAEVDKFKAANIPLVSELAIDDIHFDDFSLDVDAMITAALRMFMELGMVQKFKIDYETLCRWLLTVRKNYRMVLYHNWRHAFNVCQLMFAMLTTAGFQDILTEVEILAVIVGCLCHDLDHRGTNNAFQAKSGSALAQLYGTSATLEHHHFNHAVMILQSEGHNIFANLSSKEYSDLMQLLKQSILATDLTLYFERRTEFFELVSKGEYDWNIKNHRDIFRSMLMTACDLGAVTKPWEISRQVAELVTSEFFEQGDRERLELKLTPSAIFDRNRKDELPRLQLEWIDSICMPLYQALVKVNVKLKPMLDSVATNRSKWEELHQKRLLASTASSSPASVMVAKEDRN

| Compound | IC50 [1, 5] [nM] | IC50 [1, 6] [nM] | IC50 (bovine retinal PDE-6 [2]; [7]) [nM] | IC50 (bovine retinal PDE-6 [2]; [8]) [nM] | Selectivity (PDE-6/PDE-5) (bovine retinal PDE-6 [3]) | AUC(0-inf) ([4]; intravenous injection, 1 mg/kg) [ng·h/mL] | half-life ([4]; intravenous injection, 1 mg/kg) [h] | Cl_obs ([4]; intravenous injection, 1 mg/kg) [mL/min/kg] | Vss_obs ([4]; intravenous injection, 1 mg/kg) [L/kg] | selectivity on PDE-5 enzyme versus PDE-6 (in words) (bovine retinal PDE-6 [3]) | IC50 (hERG channel) [nM] | AUC(0-inf) [4, 9] [ng·h/mL] | Cmax [4, 9] [ng/mL] | Tmax [4, 9] [h] | half-life [4, 9] [h] | bioavailability [4, 9] [%] | AUC(0-inf) ([4]; intravenous injection, 2 mg/kg) [ng·h/mL] | half-life ([4]; intravenous injection, 2 mg/kg) [h] | Cl_obs ([4]; intravenous injection, 2 mg/kg) [mL/min/kg] | Vss_obs ([4]; intravenous injection, 2 mg/kg) [L/kg] | also measured |
| --- | --- | --- | --- | --- | --- | --- | --- | --- | --- | --- | --- | --- | --- | --- | --- | --- | --- | --- | --- | --- | --- |
| COc1ccc(CNc2nc(N3CCC4(CC4)C3)ncc2C(=O)NCCN2CCN(C)CC2)cc1Cl [Compound 46, 4-((3-chloro-4-methoxybenzyl)amino)-N-(2-(4-methylpiperazin-1-yl)ethyl)-2-(5-azaspiro[2.4]heptan-5-yl)pyrimidine-5-formamide] | 0.31 | 0.31 | 310 | 310 | 1000 | 214 | 13.9 | 79 | 86.40 |  |  |  |  |  |  |  |  |  |  |  | IC50 (PDE-5A enzyme): 14.9 nM; IC50 (PDE-11): > 10000 nM |
| COc1ccc(CNc2nc(N3CC4CC4C3)ncc2C(=O)N[C@H]2CC[C@H](O)CC2)cc1F (stereo partly drawn) [Compound 48, 2-(3-azabicyclo[3.1.0]hexan-3-yl)-4-((3-fluoro-4-methoxybenzyl)amino)-N-(trans-4-hydroxycyclohexyl)pyrimidine-5-formamide] | 7.99 | 7.99 | 1110 | 1110 | 140 |  |  |  |  | higher selectivity on PDE-5 enzyme than to PDE-6 | 8760 | 2330 | 415 | 2 | 2 | 63 | 2060 | 4.4 | 17 | 4.59 | inhibitory effect on hERG channel (in words) (hERG channel): slight inhibitory effect |
| COc1ccc(CNc2nc(N3CC4CC4C3)ncc2C(=O)N[C@H]2CC[C@H](O)CC2)cc1C (stereo partly drawn) [Compound 50, 2-(3-azabicyclo[3.1.0]hexan-3-yl)-N-((trans)-4-hydroxycyclohexyl)-4-((4-methoxy-3-methylbenzyl)amino)pyrimidine-5-formamide] | 7.72 | 7.72 | 660 | 660 | 85 |  |  |  |  | higher selectivity on PDE-5 enzyme than to PDE-6 | > 30000 | 4720 | 377 | 6 | 5.4 | 65 | 2580 | 4.1 | 13 | 4.48 | inhibitory effect on hERG channel (in words) (hERG channel; human, CHO-K1 cells stably expressing hERG channel, pH 7.4): none of Compound 3, 11 and 50 of the present invention had a significant inhibitory effect |
| COc1ccc(CNc2nc(N3CCC[C@H]3CO)ncc2C(=O)N[C@H]2CC[C@H](O)CC2)cc1Cl [WO-88, N-((trans)-4-hydroxylcyclohexan-1-yl)-4-((3-chloro-4-methoxybenzyl)amino)-2-((s)-2-(hydroxymethyl)tetrahydropyrrole-1-yl)-5-pyrimidine formamide, reference compound] |  |  |  |  |  | 347 | 1 | 48.3 | 3.6 |  | > 30000 |  |  |  |  |  |  |  |  |  | IC50 [1]: 0.59 nM; AUC(0-inf) [4, 10]: 63 ng·h/mL; Cmax [4, 10]: 29 ng/mL; Tmax [4, 10]: 0.5 h; half-life [4, 10]: 2.8 h; bioavailability [4, 10]: 23% |
| COc1ccc(CNc2nc(N3Cc4cccnc4C3)ncc2C(=O)N[C@H]2CC[C@H](O)CC2)cc1Cl [WO-93, N-(trans-4-hydroxycyclohexan-1-yl)-4-((3-chloro-4-methoxybenzyl)amino)-2-(5H-pyrrolo[3,4-b]pyridin-6(7H)yl)-5-pyrimidine formamide, reference compound] |  |  |  |  |  | 709 | 2.6 | 25 | 5.0 |  | > 30000 |  |  |  |  |  |  |  |  |  | AUC(0-inf) [4, 10]: 89 ng·h/mL; Cmax [4, 10]: 15 ng/mL; Tmax [4, 10]: 4 h; half-life [4, 10]: 2.8 h; bioavailability [4, 10]: 16% |
